For data set [1], the system named is SD rats. The experiment in a line: animal or person. Format: in vivo. Conditions: iv; for Minimal effective anesthetic dose / Onset time / Righting feflex duration / Sedation Duration / Minimal effective analgesic dose: rat, in vivo; for minimal effective dose: Rattus norvegicus.
The test system of data set [2] is SD rats. Conditions: rat, in vivo; for MLD: iv.
[3] abbreviates: read-out: Minimal effective analgesic dose.
Setting [4] is: read-out: Minimal effective anesthetic dose.

Structures are written as SMILES. Like-named read-outs stand apart in the source and are kept apart here.
Throughout, for Onset time: test concentration or dose not given here.
Throughout, for Righting feflex duration: test concentration or dose not given here.
Throughout, for Sedation Duration: test concentration or dose not given here.

As for `COC(=O)CC1N=C(c2ccccn2)c2cc(Br)ccc2N(C)C1=O` (stereo not drawn) [Compound 113], in data set [1], the “Minimal effective anesthetic dose” value came to 15.0 mg/kg, the Onset time was in the range of 0.2 to 0.3 min, the Righting feflex duration lay in the range of 0.7 to 29.5 min and the “Sedation Duration” value was 20.6 to 77.7 min. In data set [2], this molecule returned a TI of 2.7 and an MLD of 40 mg/kg.

Regarding `CC(C)OC(=O)CC1N=C(c2ccccn2)c2cc(Br)ccc2N(C)C1=O` (stereo not drawn) [Compound 114], in data set [1], the “Minimal effective anesthetic dose” value is recorded as 0.5 mg/kg, the Onset time is 0.4 to 1.1 min, the Righting feflex duration was in the range of 0.8 to 27.6 min and the “Sedation Duration” value lay within 16.5 to 140.3 min. In data set [2], this molecule registered a TI of 40.0 and an MLD of 20 mg/kg.

Consider `CC(=O)OCCC1N=C(c2ccccn2)c2cc(Br)ccc2N(C)C1=O` (stereo not drawn) [Compound 115], for which, in data set [1], the “Minimal effective anesthetic dose” value was 2.5 mg/kg, the Onset time lay in the range of 0.2 to 0.4 min, the Righting feflex duration lay in the range of 4.9 to 14.1 min and the “Sedation Duration” value lay within 12.4 to 56.0 min. In data set [2], this molecule came in with a TI of 16 and an MLD of 40 mg/kg.

As to `CN1C(=O)C(CCO)N=C(c2ccccn2)c2cc(Br)ccc21` (stereo not drawn) [Compound 117], in data set [1], the “Minimal effective anesthetic dose” value is 25.0 mg/kg, the Onset time was in the range of 0.4 to 0.5 min, the Righting feflex duration was 2.7 to 3.8 min and the “Sedation Duration” value lay within 14.6 to 32.0 min. Further, in data set [2], the TI was found to be 1.6 and the MLD turned out to be 40 mg/kg.

For `CC(=O)OCCC1N=C(c2ccccn2)c2cc(Br)ccc2-n2c(C)cnc21.O=S(=O)(O)c1ccccc1` (stereo not drawn) [Compound 145D], in data set [1], the “Minimal effective anesthetic dose” value is recorded as 7.5 mg/kg, the Onset time lay within 0.2 to 0.5 min, the Righting feflex duration is 1.7 to 19.9 min and the “Sedation Duration” value was 23.0 to 63.0 min. In data set [2], this molecule registered a TI greater than 2.3 and an MLD greater than 16.9 mg/kg.

Consider `CC(=O)OCCC1N=C(c2ccccn2)c2cc(Br)ccc2-n2c(C)cnc21` (stereo not drawn) [Compound 145], for which, in data set [1], the “Minimal effective analgesic dose” value is on record as 20 mg/kg, the “Minimal effective anesthetic dose” value is 5.0 mg/kg, the Onset time fell in the range of 0.2 to 0.4 min and the Righting feflex duration lay within 0.5 to 14.3 min. For the same molecule, the “Sedation Duration” value in data set [1] lay in the range of 33.1 to 88.2 min. Besides, in data set [2], the TI is 6.0 and the MLD was found to be 30 mg/kg.

For the molecule `Cc1cnc2n1-c1ccc(Br)cc1C(c1ccccn1)=NC2CCOC(=O)C(C)C` (stereo not drawn) [Compound 146], in data set [1], the “Minimal effective anesthetic dose” value is 1.0 mg/kg, the Onset time was in the range of 0.3 to 0.6 min, the Righting feflex duration is 3.7 to 9.7 min and the “Sedation Duration” value was 17.3 to 27.1 min. Further, in data set [2], the TI is listed as 5.0 and the MLD is on record as 5 mg/kg.

`CCC(=O)OCCC1N=C(c2ccccn2)c2cc(Br)ccc2-n2c(C)cnc21` (stereo not drawn) [Compound 147]: in data set [1], the “Minimal effective anesthetic dose” value is 2.5 mg/kg, the Onset time fell in the range of 0.2 to 0.5 min and the “Sedation Duration” value lay within 27.0 to 48.7 min. In data set [2], this molecule showed a TI of 6.0 and an MLD of 15 mg/kg.

For the molecule `Cc1cnc2n1-c1ccc(Br)cc1C(c1ccccn1)=NC2CCOC(=O)CCl` (stereo not drawn) [Compound 148], in data set [1], the “Minimal effective anesthetic dose” value amounted to 1.8 mg/kg, the Onset time was in the range of 0.2 to 1.1 min, the Righting feflex duration is 1.0 to 60.8 min and the “Sedation Duration” value is 20.1 to 82.4 min. For the same molecule, in data set [2], the TI is 33.3 and the MLD stood at 60 mg/kg.

On to `Cc1cnc2n1-c1ccc(Br)cc1C(c1ccccn1)=NC2CCOC(=O)CCCl` (stereo not drawn) [Compound 150], for which, in data set [1], the “Minimal effective anesthetic dose” value came out at 2.5 mg/kg, the Onset time fell in the range of 0.2 to 0.4 min, the Righting feflex duration fell in the range of 0.8 to 13.5 min and the “Sedation Duration” value fell in the range of 16.9 to 33.9 min. Also, in data set [2], the TI turned out to be 5.5 and the MLD stood at 13.7 mg/kg.

`C=CC(=O)OCCC1N=C(c2ccccn2)c2cc(Br)ccc2-n2c(C)cnc21` (stereo not drawn) [Compound 151]: in data set [1], the “Minimal effective anesthetic dose” value turned out to be 1.8 mg/kg, the Onset time was in the range of 0.2 to 3.4 min, the Righting feflex duration is 3.7 to 38.6 min and the “Sedation Duration” value was in the range of 19.0 to 68.4 min. In data set [2], this molecule yielded a TI of 16.3 and an MLD of 29.4 mg/kg.

Turning to `Cc1cnc2n1-c1ccc(Br)cc1C(c1ccccn1)=NC2CCOC(=O)C1COC1` (stereo not drawn) [Compound 153], in data set [1], the “Minimal effective anesthetic dose” value is given as 7.5 mg/kg, the Onset time is 0.3 to 0.4 min, the Righting feflex duration was 2.9 to 5.8 min and the “Sedation Duration” value lay within 20.0 to 21.9 min. In data set [2], this molecule came in with a TI of 2.7 and an MLD of 20 mg/kg.

Regarding `CCOC(=O)OCCC1N=C(c2ccccn2)c2cc(Br)ccc2-n2c(C)cnc21` (stereo not drawn) [Compound 154], in data set [1], the “Minimal effective anesthetic dose” value was 3.8 mg/kg, the Onset time lay within 0.5 to 0.9 min, the Righting feflex duration was 1.3 to 6.2 min and the “Sedation Duration” value fell in the range of 14.1 to 17.0 min. In data set [2], this molecule showed a TI of 2.0 and an MLD of 7.5 mg/kg.

On to `Cc1cnc2n1-c1ccc(Br)cc1C(c1ccccn1)=NC2CCOC(=O)N(C)C.O=S(=O)(O)c1ccccc1` (stereo not drawn) [Compound 156D], for which, in data set [1], the “Minimal effective anesthetic dose” value is 5.0 mg/kg, the Onset time lay in the range of 0.2 to 0.6 min, the Righting feflex duration is 0.6 to 10.9 min and the “Sedation Duration” value was 12.8 to 36.9 min. In data set [2], this molecule registered a TI greater than 1.5 and an MLD greater than 7.5 mg/kg.

Regarding `Cc1cnc2n1-c1ccc(Br)cc1C(c1ccccn1)=NC2CCOC(=O)N(C)C` (stereo not drawn) [Compound 156], in data set [1], the “Minimal effective anesthetic dose” value was 1.8 mg/kg, the Onset time fell in the range of 0.2 to 0.4 min, the Righting feflex duration lay in the range of 1.7 to 31.9 min and the “Sedation Duration” value is 9.3 to 91.5 min. Besides, in data set [2], the TI was found to be 11.1 and the MLD was 20 mg/kg.

As for `CC(=O)OC1N=C(c2ccccn2)c2cc(Br)ccc2N(C)C1=O` (stereo not drawn) [Compound 164], in data set [1], the “Minimal effective anesthetic dose” value is 5.0 mg/kg, the Onset time fell in the range of 0.2 to 1.0 min, the Righting feflex duration lay within 1.2 to 50.4 min and the “Sedation Duration” value was 116.7 to 284.0 min. In data set [2], this molecule registered a TI of 8.0 and an MLD of 40 mg/kg.

For `CC(C)OC(=O)OC1N=C(c2ccccn2)c2cc(Br)ccc2N(C)C1=O` (stereo not drawn) [Compound 166], in data set [1], the “Minimal effective analgesic dose” value is listed as 20 mg/kg, the “Minimal effective anesthetic dose” value is on record as 20.0 mg/kg, the Onset time is listed as 0.4 min and the Righting feflex duration was found to be 20.7 min. Also, in data set [1], the “Sedation Duration” value is 64.0 min. In addition, in data set [2], the TI is given as 2.0 and the MLD is 38.9 mg/kg.

For `CC(C)OC(=O)CCC1N=C(c2ccccn2)c2cc3nc(C(F)(F)F)sc3cc2N(C)C1=O` (stereo not drawn) [Compound 181], in data set [1], the “Minimal effective analgesic dose” value worked out at 40 mg/kg, the “Minimal effective anesthetic dose” value came out at 40.0 mg/kg, the Onset time amounted to 0.8 min and the Righting feflex duration turned out to be 7.8 min. In addition, the “Sedation Duration” value in data set [1] worked out at 53.0 min. In data set [2], this molecule showed a TI greater than 1.0 and an MLD greater than 40 mg/kg.

Regarding `Cc1cnc2n1-c1ccc(Br)cc1C(c1ccccn1)=NC2COC(=O)c1ccccc1` (stereo not drawn) [Compound 191], in data set [1], the “Minimal effective analgesic dose” value amounted to 20 mg/kg, the “Minimal effective anesthetic dose” value worked out at 5.0 mg/kg, the Onset time fell in the range of 0.45 to 0.53 min and the Righting feflex duration fell in the range of 0.7 to 12.8 min. Also, the “Sedation Duration” value in data set [1] lay in the range of 53.5 to 155.3 min. In addition, in data set [2], the TI amounted to 6.8 and the MLD is listed as 34.0 mg/kg.

Consider `Cc1ccc(C(=O)OCC2N=C(c3ccccn3)c3cc(Br)ccc3-n3c(C)cnc32)cc1` (stereo not drawn) [Compound 192], for which, in data set [1], the “Minimal effective anesthetic dose” value is 5.0 mg/kg, the Onset time was 0.2 to 0.4 min, the Righting feflex duration lay within 5.9 to 14.9 min and the “Sedation Duration” value was 156.7 to 200.0 min. In data set [2], the TI came out at 2.0 and the MLD was 10.0 mg/kg.

For the molecule `Cc1cnc2n1-c1ccc(Br)cc1C(c1ccccn1)=NC2COS(=O)c1ccccc1` (stereo not drawn) [Compound 195], in data set [1], the “Minimal effective analgesic dose” value worked out at 21.8 mg/kg, the “Minimal effective anesthetic dose” value turned out to be 7.5 mg/kg, the Onset time lay within 0.2 to 0.5 min and the Righting feflex duration is 5.3 to 76.6 min. The “Sedation Duration” value in data set [1] lay within 78.5 to 195.4 min. Further, in data set [2], the TI is greater than 2.9 and the MLD is reported as greater than 21.8 mg/kg.

For the molecule `Cc1cnc2n1-c1ccc(Br)cc1C(c1ccccn1)=NC2COC(=O)CN(C)C` (stereo not drawn) [Compound 196], in data set [1], the “Minimal effective anesthetic dose” value worked out at 15 mg/kg, the Onset time lay within 0.2 to 1.4 min, the Righting feflex duration is 9.5 to 23.6 min and the “Sedation Duration” value was 214.5 to 403.5 min. Further, in data set [2], the TI was found to be 3.3 and the MLD came out at 50 mg/kg.

As for `CC(C)OC(=O)CN1N=C(c2ccccn2)c2cc(Br)ccc2N(C)C1=O` [Compound 239], the minimal effective dose in data set [1] (setting [3]) was determined as 10 mg/kg. Also, the minimal effective dose in data set [1] (setting [4]) was 5 mg/kg. In data set [1], the Onset time was 0.17 to 0.75 min, the Righting feflex duration lay in the range of 1.30 to 11.58 min and the “Sedation Duration” value lay in the range of 17.72 to 23.57 min. Moreover, in data set [2] (SD), the TI worked out at 8 and the MLD is listed as 40 mg/kg.

For the molecule `CC(C)COC(=O)CN1N=C(c2ccccn2)c2cc(Br)ccc2N(C)C1=O` [Compound 240], the minimal effective dose in data set [1] (setting [3]) was 30 mg/kg. For the same molecule, the minimal effective dose in data set [1] (setting [4]) is 10 mg/kg. In data set [1], the Onset time lay within 0.30 to 0.48 min, the Righting feflex duration was in the range of 0.62 to 15.83 min and the “Sedation Duration” value fell in the range of 15.27 to 36.70 min. In data set [2] (SD), this molecule registered a TI of 3 and an MLD of 30 mg/kg.

Broadly, the minimal effective dose is the lowest level tested that produced the effect sought.

The record behind these values is patent EP4711368A1 (priority 2023, dated 2024).
